In article PMC9562371 (RSC Advances, 2022):

Target: T1, m-OLF (myocilin OLF domain) (Homo sapiens, UniProt Q99972)
T1 sequence (Q99972 244-504): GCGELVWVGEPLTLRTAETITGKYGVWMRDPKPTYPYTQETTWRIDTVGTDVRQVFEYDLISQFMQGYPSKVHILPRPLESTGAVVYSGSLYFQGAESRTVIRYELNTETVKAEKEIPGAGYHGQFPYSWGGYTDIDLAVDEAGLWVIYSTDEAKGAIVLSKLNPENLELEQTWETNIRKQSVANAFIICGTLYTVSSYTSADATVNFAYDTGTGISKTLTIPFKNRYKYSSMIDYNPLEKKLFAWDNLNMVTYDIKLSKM
Assay: surface plasmon resonance
Type: binding

Kd: 19.8 µM
Compound: O=C(O[C@@H]1Cc2c(O)cc(O)cc2O[C@@H]1c1ccc(O)c(O)c1)c1cc(O)c(O)c(O)c1 [ECG]
